The assay has as its target T1, Vtc1/Vtc3/Vtc4 complex (VTC complex) (Saccharomyces cerevisiae, UniProt P47075+Q02725, P47075:K300A/P47075:R302A/P47075:K320A).
T1 construct: full-length subunits co-expressed in Expi293F; Vtc1 C-terminal HA, Vtc3 N-terminal 3xFlag, Vtc4 C-terminal 2xStrep; detergent-purified; 3:1:1 pentamer; with Vacuolar transporter chaperone complex subunit 1
T1 sequence (P47075 1-721 K300A/R302A/K320A): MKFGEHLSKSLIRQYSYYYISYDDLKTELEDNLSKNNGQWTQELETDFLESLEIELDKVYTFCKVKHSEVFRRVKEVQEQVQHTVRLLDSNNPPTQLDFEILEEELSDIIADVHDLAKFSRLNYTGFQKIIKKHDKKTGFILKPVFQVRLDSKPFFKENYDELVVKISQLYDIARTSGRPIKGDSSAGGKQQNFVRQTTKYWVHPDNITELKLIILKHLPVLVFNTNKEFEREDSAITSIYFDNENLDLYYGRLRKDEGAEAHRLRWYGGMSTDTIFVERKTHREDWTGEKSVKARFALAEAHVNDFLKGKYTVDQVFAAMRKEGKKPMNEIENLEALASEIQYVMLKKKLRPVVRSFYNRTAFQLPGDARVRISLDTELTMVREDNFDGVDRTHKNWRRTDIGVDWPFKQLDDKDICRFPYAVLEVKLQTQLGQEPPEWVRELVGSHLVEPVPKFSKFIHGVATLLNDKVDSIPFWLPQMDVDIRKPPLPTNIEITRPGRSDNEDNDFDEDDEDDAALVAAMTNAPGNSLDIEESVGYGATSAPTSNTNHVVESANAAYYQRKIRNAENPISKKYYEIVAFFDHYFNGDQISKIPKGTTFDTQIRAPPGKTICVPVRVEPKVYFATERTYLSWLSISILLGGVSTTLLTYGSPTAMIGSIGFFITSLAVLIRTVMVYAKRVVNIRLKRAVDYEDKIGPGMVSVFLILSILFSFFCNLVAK
T1 sequence (Q02725 1-835): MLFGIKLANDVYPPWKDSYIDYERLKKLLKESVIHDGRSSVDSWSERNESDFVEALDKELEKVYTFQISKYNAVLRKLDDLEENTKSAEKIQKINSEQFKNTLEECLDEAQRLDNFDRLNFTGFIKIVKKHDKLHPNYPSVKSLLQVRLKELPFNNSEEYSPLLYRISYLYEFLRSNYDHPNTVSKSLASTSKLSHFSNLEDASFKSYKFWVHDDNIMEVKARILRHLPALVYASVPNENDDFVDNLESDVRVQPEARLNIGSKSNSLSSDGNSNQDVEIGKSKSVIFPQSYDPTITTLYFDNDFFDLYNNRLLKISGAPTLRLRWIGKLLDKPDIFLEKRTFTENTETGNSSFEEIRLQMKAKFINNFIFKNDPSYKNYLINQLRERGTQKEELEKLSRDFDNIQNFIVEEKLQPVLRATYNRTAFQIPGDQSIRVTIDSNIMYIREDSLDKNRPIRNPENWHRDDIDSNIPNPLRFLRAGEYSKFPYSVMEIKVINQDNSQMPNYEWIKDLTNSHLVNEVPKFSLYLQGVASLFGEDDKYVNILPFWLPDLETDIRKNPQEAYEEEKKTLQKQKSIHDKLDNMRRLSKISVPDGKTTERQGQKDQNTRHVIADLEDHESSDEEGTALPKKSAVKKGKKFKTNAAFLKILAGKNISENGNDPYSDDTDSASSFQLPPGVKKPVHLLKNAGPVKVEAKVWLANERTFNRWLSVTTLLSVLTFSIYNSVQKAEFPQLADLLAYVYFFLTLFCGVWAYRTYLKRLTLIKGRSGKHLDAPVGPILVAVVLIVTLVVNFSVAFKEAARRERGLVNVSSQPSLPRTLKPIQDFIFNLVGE
T1 sequence (P40046 2-129 partner): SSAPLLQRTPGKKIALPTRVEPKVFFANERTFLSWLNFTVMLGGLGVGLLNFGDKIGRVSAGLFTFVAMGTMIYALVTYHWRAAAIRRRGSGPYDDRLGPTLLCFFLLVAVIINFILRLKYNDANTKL
Briefly: polyP synthesis, TBE-PAGE. The class given is biochemical. Particulars: activator; 15 mM ATP, 10 mM MgCl2, 1 mM MnCl2, 0.5 mM pyrophosphate, 27 °C; TTM cleft (second site) mutant.

From paper PMC9911596 (Nature Communications, 2023) come the findings set out here.

As to `O=P(O)(O)O[C@H]1[C@H](OP(=O)(O)O)[C@@H](OP(=O)(O)O)[C@H](OP(=O)(O)O)[C@@H](OP(=O)(O)O)[C@H]1OP(=O)(O)O` [InsP6], the “polyP synthesis, TBE-PAGE” value is “had little impact on InsP6-stimulated polyP synthesis by VTC complex”.
